Measurements published in patent US8772012B2 (Kabushiki Kaisha Toyota Chuo Kenkyusho, priority 2009, dated 2014).

Assays:
[1] = test system: Clostridium phytofermentans xylose isomerase CpXI (protein ID: YP_001558336), expressed in yeast; conditions: Non-patent Literature 1; cited from earlier work
[2] = test system: Piromyces sp. E2 xylose isomerase PiXI, expressed in yeast; conditions: Non-patent Literature 1; cited from earlier work
[3] = molecular target: Piromyces sp. E2 xylose isomerase PiXI-O (PiXI; codon optimized gene PiXI-O, SEQ ID NO: 46), expressed in yeast (Piromyces sp. E2, UniProt A0ACD6B9F5); assay: Xylose isomerase kinetic analysis, crude yeast extract of W600W/pRS436GAP-PiXI-O (SDH-coupled NADH oxidation); assay type: biochemical
Piromyces sp. E2 xylose isomerase PiXI-O (PiXI; codon optimized gene PiXI-O, SEQ ID NO: 46), expressed in yeast, sequence (A0ACD6B9F5 1-437): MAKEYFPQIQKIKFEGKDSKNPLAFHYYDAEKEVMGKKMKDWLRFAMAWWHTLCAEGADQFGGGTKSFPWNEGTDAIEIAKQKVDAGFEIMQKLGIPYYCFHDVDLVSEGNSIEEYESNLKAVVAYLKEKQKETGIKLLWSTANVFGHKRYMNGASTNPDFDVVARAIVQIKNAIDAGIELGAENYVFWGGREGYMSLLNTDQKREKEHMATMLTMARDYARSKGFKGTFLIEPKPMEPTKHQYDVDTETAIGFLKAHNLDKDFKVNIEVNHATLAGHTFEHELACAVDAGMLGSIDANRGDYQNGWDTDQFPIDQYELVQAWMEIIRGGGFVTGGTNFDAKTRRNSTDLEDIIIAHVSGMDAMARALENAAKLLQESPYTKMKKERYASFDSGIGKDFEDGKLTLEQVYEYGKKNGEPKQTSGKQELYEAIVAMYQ
Procedure: (§1) The genes were synthesized by Genscript Corporation (www.Genscript.com) and Life Technologies Corporation (www.lifetechnologies.com), and the synthesized genes were named RsXIC1-O (SEQ ID NO: 45), PiXI-O (SEQ ID NO: 46) and CpXI-O (SEQ ID NO: 47), respectively.
(§2) The W600W/pRS436GAP-RsXIC1-O strain and W600W/pRS436GAP-PiXI-O strain were cultured for 24 hours in SD liquid medium, and the cells were collected and washed twice with sterile water, and then washed twice with 100 mM phosphate buffer (pH 7.0). After washing, glass beads (di 0.3 mm, Yasui Kikai) and 100 mM phosphate buffer (pH 7.0) were added to the yeast pellets, and a Multi-beads shocker (Yasui Kikai) was operated for 7 minutes at 4° C., 2500 rpm to disrupt the yeast cells. The resulting disrupted cell liquid was centrifuged for 5 minutes at 4° C., 12000 rpm, and the supernatant was collected as a crude yeast extract. The total protein concentration of the crude yeast extract was measured with a Quick Start protein assay kit (Bio-Rad).
(§3) The reaction was performed at 30° C., and NADH absorbancy changes were measured at a wavelength of 340 nm with a Ubest-55 spectrometer (Jasco).

[4] = test system: Xylose isomerase RsXIC1-O (RsXI-C1, SEQ ID NO: 2; codon optimized gene RsXIC1-O, SEQ ID NO: 45), intestinal protist of Reticulitermes speratus, expressed in …; assay: Xylose isomerase kinetic analysis, crude yeast extract of W600W/pRS436GAP-RsXIC1-O (SDH-coupled NADH oxidation); assay type: biochemical
Procedure: as §1, §2, §3

[5] = xylose 5 to 250 mM, pH 7.5, 30° C., 10 mM MgCl2, crude yeast extract, Hanes-Woolf plot

In the case of `OC1OC[C@@H](O)[C@H](O)[C@H]1O` (stereo partly shown) [xylose], the Km [1] is given as 66 ± 1 mM, the Km [2] is given as 49.8 ± 2.82 mM and the “maximum reaction velocity Vmax for PiXI-O relative to RsXIC1-O” value ([3]; Vmax ratio PiXI-O vs RsXIC1-O) is given as “about 1.5 times”. For the same molecule, the Vmax [3, 5] was 0.078 ± 0.026 μmol/mg-protein, the “Km value for RsXIC1-O relative to the value for PiXI-O” value ([4]; Km ratio RsXIC1-O vs PiXI-O) was “not more than ⅓” and the Km [4, 5] was 13.3 ± 2.02 mM. The Vmax [4, 5] was 0.054 ± 0.007 μmol/mg-protein.
